The NIST ThermoML archive (doi:10.1021/je200038n)
Numbers after ± are expanded uncertainties.

Columns and labels:
[1] = wn = mass fraction of the nth substance listed; settings: 3000 kPa, Liquid; for mass density: Vibrating tube method; for viscosity: Moving piston method
[2] = molar heat capacity at constant pressure; wn = mass fraction of the nth substance listed; settings: 3000 kPa, Liquid, Flow calorimetry

N#C[S-].[Na+] [sodium thiocyanate] + N
mass density ([1]; 312.4 K, w2 = 0.797): 724.2 ± 2 kg/m3
mass density ([1]; 312.4 K, w2 = 0.8921): 648.1 ± 2.1 kg/m3
viscosity ([1]; 316.8 K, w2 = 0.797): 0.23 ± 0.05 mPa·s
viscosity ([1]; 317 K, w2 = 0.614): 0.62 ± 0.05 mPa·s
viscosity ([1]; 317 K, w2 = 0.6824): 0.4 ± 0.05 mPa·s
mass density ([1]; 317 K, w2 = 0.614): 857.4 ± 2 kg/m3
viscosity ([1]; 317.1 K, w2 = 0.4998): 1.15 ± 0.05 mPa·s
mass density ([1]; 317.1 K, w2 = 0.797): 718.9 ± 2 kg/m3
mass density ([1]; 317.2 K, w2 = 0.4998): 929.3 ± 2 kg/m3
mass density ([1]; 317.2 K, w2 = 0.6824): 807 ± 2 kg/m3
viscosity ([1]; 321.5 K, w2 = 0.797): 0.22 ± 0.05 mPa·s
viscosity ([1]; 321.6 K, w2 = 0.8921): 0.15 ± 0.05 mPa·s
viscosity ([1]; 321.7 K, w2 = 0.614): 0.57 ± 0.05 mPa·s
viscosity ([1]; 321.7 K, w2 = 0.6824): 0.38 ± 0.05 mPa·s
viscosity ([1]; 321.8 K, w2 = 0.4998): 1.06 ± 0.05 mPa·s
mass density ([1]; 321.8 K, w2 = 0.614): 852.4 ± 2 kg/m3
mass density ([1]; 321.8 K, w2 = 0.797): 713.6 ± 2 kg/m3
mass density ([1]; 321.9 K, w2 = 0.4998): 925.5 ± 2 kg/m3
mass density ([1]; 321.9 K, w2 = 0.6824): 800.5 ± 2 kg/m3
mass density ([1]; 322 K, w2 = 0.8921): 635.4 ± 2.1 kg/m3
viscosity ([1]; 326.4 K, w2 = 0.797): 0.21 ± 0.05 mPa·s
viscosity ([1]; 326.5 K, w2 = 0.614): 0.53 ± 0.05 mPa·s
viscosity ([1]; 326.5 K, w2 = 0.6824): 0.36 ± 0.05 mPa·s
viscosity ([1]; 326.6 K, w2 = 0.4998): 1 ± 0.05 mPa·s
mass density ([1]; 326.6 K, w2 = 0.614): 846.9 ± 2 kg/m3
mass density ([1]; 326.6 K, w2 = 0.797): 708.4 ± 2 kg/m3
mass density ([1]; 326.7 K, w2 = 0.4998): 921.4 ± 2 kg/m3
mass density ([1]; 326.7 K, w2 = 0.6824): 795 ± 2 kg/m3
viscosity ([1]; 331 K, w2 = 0.8921): 0.13 ± 0.05 mPa·s
viscosity ([1]; 331.1 K, w2 = 0.797): 0.2 ± 0.05 mPa·s
viscosity ([1]; 331.2 K, w2 = 0.614): 0.51 ± 0.05 mPa·s
viscosity ([1]; 331.2 K, w2 = 0.6824): 0.35 ± 0.05 mPa·s
viscosity ([1]; 331.4 K, w2 = 0.4998): 0.92 ± 0.05 mPa·s
mass density ([1]; 331.4 K, w2 = 0.614): 843.1 ± 2 kg/m3
mass density ([1]; 331.4 K, w2 = 0.6824): 792 ± 2 kg/m3
mass density ([1]; 331.4 K, w2 = 0.797): 701 ± 2.1 kg/m3
mass density ([1]; 331.5 K, w2 = 0.4998): 917.4 ± 2 kg/m3
viscosity ([1]; 335.7 K, w2 = 0.797): 0.19 ± 0.05 mPa·s
viscosity ([1]; 336 K, w2 = 0.6824): 0.33 ± 0.05 mPa·s
viscosity ([1]; 336.1 K, w2 = 0.614): 0.47 ± 0.05 mPa·s
mass density ([1]; 336.2 K, w2 = 0.614): 838.1 ± 2 kg/m3
mass density ([1]; 336.2 K, w2 = 0.797): 692.7 ± 2.1 kg/m3
viscosity ([1]; 336.3 K, w2 = 0.4998): 0.87 ± 0.05 mPa·s
mass density ([1]; 336.3 K, w2 = 0.4998): 913.3 ± 2 kg/m3
mass density ([1]; 336.3 K, w2 = 0.6824): 783.1 ± 2.1 kg/m3
viscosity ([1]; 340.6 K, w2 = 0.797): 0.18 ± 0.05 mPa·s
viscosity ([1]; 340.8 K, w2 = 0.614): 0.46 ± 0.05 mPa·s
viscosity ([1]; 340.8 K, w2 = 0.6824): 0.31 ± 0.05 mPa·s
mass density ([1]; 341 K, w2 = 0.797): 686.7 ± 2 kg/m3
viscosity ([1]; 341.1 K, w2 = 0.4998): 0.82 ± 0.05 mPa·s
mass density ([1]; 341.1 K, w2 = 0.614): 832.6 ± 2 kg/m3
mass density ([1]; 341.1 K, w2 = 0.6824): 775.2 ± 2 kg/m3
mass density ([1]; 341.2 K, w2 = 0.4998): 909.2 ± 2 kg/m3
viscosity ([1]; 345.6 K, w2 = 0.614): 0.43 ± 0.05 mPa·s
viscosity ([1]; 345.9 K, w2 = 0.4998): 0.77 ± 0.05 mPa·s
mass density ([1]; 346 K, w2 = 0.4998): 905.1 ± 2.6 kg/m3
mass density ([1]; 346 K, w2 = 0.614): 826.5 ± 2.6 kg/m3
viscosity ([1]; 350.2 K, w2 = 0.614): 0.4 ± 0.05 mPa·s
viscosity ([1]; 350.4 K, w2 = 0.4998): 0.73 ± 0.05 mPa·s
mass density ([1]; 350.9 K, w2 = 0.4998): 900.9 ± 2.6 kg/m3
viscosity ([1]; 359.7 K, w2 = 0.4998): 0.65 ± 0.05 mPa·s
viscosity ([1]; 369.5 K, w2 = 0.4998): 0.58 ± 0.05 mPa·s
molar heat capacity at constant pressure ([2]; 304.17 K, w2 = 0.4992): 63.48 ± 0.84 J/K/mol
molar heat capacity at constant pressure ([2]; 304.17 K, w2 = 0.5988): 72.55 ± 0.75 J/K/mol
molar heat capacity at constant pressure ([2]; 304.17 K, w2 = 0.7013): 76.74 ± 0.69 J/K/mol
molar heat capacity at constant pressure ([2]; 304.17 K, w2 = 0.9): 81.53 ± 0.57 J/K/mol
molar heat capacity at constant pressure ([2]; 314.14 K, w2 = 0.4992): 64.61 ± 0.84 J/K/mol
molar heat capacity at constant pressure ([2]; 314.14 K, w2 = 0.5988): 72.3 ± 0.75 J/K/mol
molar heat capacity at constant pressure ([2]; 314.14 K, w2 = 0.7013): 77.73 ± 0.69 J/K/mol
molar heat capacity at constant pressure ([2]; 314.14 K, w2 = 0.7961): 81.14 ± 0.63 J/K/mol
molar heat capacity at constant pressure ([2]; 314.14 K, w2 = 0.9): 81.93 ± 0.57 J/K/mol
molar heat capacity at constant pressure ([2]; 324.11 K, w2 = 0.4992): 64.64 ± 0.84 J/K/mol
molar heat capacity at constant pressure ([2]; 324.11 K, w2 = 0.5988): 72.13 ± 0.75 J/K/mol
molar heat capacity at constant pressure ([2]; 324.11 K, w2 = 0.7013): 77.86 ± 0.69 J/K/mol
molar heat capacity at constant pressure ([2]; 324.11 K, w2 = 0.7961): 82.16 ± 0.63 J/K/mol
molar heat capacity at constant pressure ([2]; 324.11 K, w2 = 0.9): 83.77 ± 0.57 J/K/mol
molar heat capacity at constant pressure ([2]; 334.09 K, w2 = 0.4992): 65.26 ± 0.84 J/K/mol
molar heat capacity at constant pressure ([2]; 334.09 K, w2 = 0.5988): 72.48 ± 0.75 J/K/mol
molar heat capacity at constant pressure ([2]; 334.09 K, w2 = 0.7013): 78.17 ± 0.69 J/K/mol
molar heat capacity at constant pressure ([2]; 334.09 K, w2 = 0.7961): 82.8 ± 0.63 J/K/mol
molar heat capacity at constant pressure ([2]; 334.09 K, w2 = 0.9): 85.93 ± 0.57 J/K/mol
molar heat capacity at constant pressure ([2]; 344.07 K, w2 = 0.4992): 65.94 ± 0.84 J/K/mol
molar heat capacity at constant pressure ([2]; 344.07 K, w2 = 0.5988): 73.3 ± 0.75 J/K/mol
molar heat capacity at constant pressure ([2]; 344.07 K, w2 = 0.7013): 79.2 ± 0.69 J/K/mol
molar heat capacity at constant pressure ([2]; 354.06 K, w2 = 0.4992): 67.29 ± 0.84 J/K/mol
molar heat capacity at constant pressure ([2]; 354.06 K, w2 = 0.5988): 74.12 ± 0.75 J/K/mol
molar heat capacity at constant pressure ([2]; 364.15 K, w2 = 0.4992): 70.3 ± 0.84 J/K/mol
